ChEMBL document CHEMBL4813945, “Discovery and development of novel pyrimidine and pyrazolo/thieno-fused pyrimidine derivatives as potent and orally active inducible nitric oxide synthase dimerization inhibitor with efficacy for arthritis” (Eur J Med Chem, 2021)

Legend:
RAW264.7 [1] = experiment: Antiinflammatory activity against mouse RAW264.7 cells assessed as inhibition of LPS-induced NO production at 10 uM preincubated for 1 hrs followed by LPS stimulation and measured after 24 hrs by Griess assay relative to control; type: functional; conditions: time 25 hrs
L02 = experiment: Antiinflammatory activity against human L02 assessed as inhibition of LPS-induced NO production preincubated for 1 hrs followed by LPS stimulation and measured after 24 hrs by Griess assay relative to control; type: functional, cell-based
RAW264.7 [2] = experiment: Cytotoxicity against mouse RAW264.7 cells at 20 uM measured after 24 hrs; type: cell-based; conditions: raw264.7, 24 h

SMILES | inhibition at 10 µM (RAW264.7 [1]) [%] | IC50 (L02) [µM] | Activity (RAW264.7 [2])
CCCc1nn(C)c2c(NCCc3cccc(Cl)c3)nc(/C=C/c3ccc[n+]([O-])c3)nc12 | 37.5 | 162 | Non-Toxic
CC(C)CNc1nc(/C=C/c2ccccc2)nc2ccsc12 | 25 | > 1000 | Non-Toxic
COc1cc(/C=C/c2nccc(NCCc3ccccc3)n2)cc(OC)c1OC | 85 | < 40 | Non-Toxic
Brc1cccc(Nc2nc(/C=C/c3ccccc3)nc3ccsc23)c1 | 28.8 | > 1000 | Non-Toxic
Fc1ccc(CNc2nc(/C=C/c3ccco3)nc3ccsc23)cc1 | 59.2 | > 1000 | Non-Toxic
COc1cc(/C=C/c2nc(NCCc3ccc(F)cc3)c3sccc3n2)cc(OC)c1OC | 26.9 | < 40 | Non-Toxic
COc1cc(/C=C/c2nc(N(C)c3ccccc3)c3sccc3n2)cc(OC)c1OC | 32.5 | 767 | Non-Toxic
CCCc1nn(C)c2c(NC3CC3)nc(/C=C/c3cccnc3)nc12 | 49.5 | 261 | Non-Toxic
CCCc1nn(C)c2c(N3CCS(=O)(=O)CC3)nc(/C=C/c3cccnc3)nc12 | 60.2 | 472 | Non-Toxic
Brc1ccc(Nc2nc(/C=C/c3ccccc3)nc3ccsc23)cc1 | 19.5 | > 1000 | Non-Toxic
COc1cc(/C=C/c2nc(N3CCCC3)c3sccc3n2)cc(OC)c1OC | 33.2 | 681 | Non-Toxic
CN1CCN(c2nc(/C=C/c3ccccc3)nc3ccsc23)CC1 | 18.5 | 198 | Non-Toxic
COc1cc(/C=C/c2nc(Nc3ccc(C)cc3)c3sccc3n2)cc(OC)c1OC | 19.2 | < 40 | Non-Toxic
CCCc1nn(C)c2c(NCCc3cccc(Cl)c3)nc(/C=C/c3nc(C)c(C)nc3C)nc12 | 68.8 | 786 | Non-Toxic
COc1cc(/C=C/c2nc(NCCc3ccccc3)c3sccc3n2)cc(OC)c1OC | 46.2 | < 40 | Non-Toxic
FC(F)(F)c1ccc(Nc2nc(/C=C/c3ccccc3)nc3ccsc23)cc1 | 30.1 | > 1000 | Non-Toxic
CCCc1nn(C)c2c(N3CCOCC3)nc(/C=C/c3cccnc3)nc12 | 69.9 | 535 | Non-Toxic
COc1cc(/C=C/c2nc(O)nc(NCCc3ccc(F)cc3)n2)cc(OC)c1OC | 36.5 | 483 | Non-Toxic
CCCc1nn(C)c2c(NCc3ccc(F)cc3)nc(/C=C/c3ccc[n+]([O-])c3)nc12 | 64.6 | < 40 | Non-Toxic
CCCc1nn(C)c2c(NCc3ccc(F)cc3)nc(/C=C/c3nc(C)c(C)nc3C)nc12 | 63.4 | > 1000 | Non-Toxic
CCCc1nn(C)c2c(NC3CC3)nc(CCc3cccnc3)nc12 | 7.29 | 564 | Non-Toxic

SMILES | inhibition at 10 µM (RAW264.7 [1]) [%] | IC50 (L02) [µM] | Activity (RAW264.7 [2])
CCN1CCN(c2nc(/C=C/c3cc(OC)c(OC)c(OC)c3)nc3ccsc23)CC1 | 46.7 | > 1000 | Non-Toxic
COc1cc(/C=C/c2nc(NCc3ccccc3Cl)c3sccc3n2)cc(OC)c1OC | 21.9 | > 1000 | Non-Toxic
COc1cc(/C=C/c2nc(N3CCN(C)CC3)c3sccc3n2)cc(OC)c1OC | 39.3 | > 1000 | Non-Toxic
CCCc1nn(C)c2c(NC(C)C)nc(/C=C/c3nc(C)c(C)nc3C)nc12 | 54.8 | 342 | Non-Toxic
CCCc1nn(C)c2c(N3CCS(=O)(=O)CC3)nc(CCc3cccnc3)nc12 | 15.6 | > 1000 | Non-Toxic
CCCc1nn(C)c2c(N3CCOCC3)nc(/C=C/c3nc(C)c(C)nc3C)nc12 | 74.2 | 370 | Non-Toxic
COc1cccc(CNc2nc(/C=C/c3ccccc3)nc3ccsc23)c1 | 30.7 | > 1000 | Non-Toxic
CC(C)Nc1nc(/C=C/c2ccccc2)nc2ccsc12 | 22.9 | > 1000 | Non-Toxic
COc1cc(/C=C/c2nc(Cl)cc(NCCc3ccccc3)n2)cc(OC)c1OC | 31.2 | < 40 | Non-Toxic
C(=C\c1ccco1)/c1nc(NCc2ccccc2)c2sccc2n1 | 64.1 | > 1000 | Non-Toxic
CCCc1nn(C)c2c(NCCc3cccc(Cl)c3)nc(CCc3cccnc3)nc12 | 37.5 | 612 | Non-Toxic
CCCc1nn(C)c2c(NCc3ccc(F)cc3)nc(CCc3cccnc3)nc12 | 18.8 | < 40 | Non-Toxic
Fc1ccc(CCNc2nc(/C=C/c3ccccc3)nc3ccsc23)cc1 | 29.8 | > 1000 | Non-Toxic
Fc1ccccc1CNc1nc(/C=C/c2ccco2)nc2ccsc12 | 11.7 | > 1000 | Non-Toxic
CCCCNc1nc(/C=C/c2ccccc2)nc2ccsc12 | 22.4 | > 1000 | Non-Toxic
COc1cc(/C=C/c2nc(N(C)C)c3sccc3n2)cc(OC)c1OC | 27.2 | > 1000 | Non-Toxic
Clc1ccccc1CNc1nc(/C=C/c2ccccc2)nc2ccsc12 | 35.2 | > 1000 | Non-Toxic
C(=C\c1nc(Nc2ccccc2)c2sccc2n1)/c1ccccc1 | 21 | > 1000 | Non-Toxic
CCCc1nn(C)c2c(NCCc3cccc(Cl)c3)nc(/C=C/c3cccnc3)nc12 | 66.7 | > 1000 | Non-Toxic
COc1cc(/C=C/c2nc(O)nc(NCCc3ccccc3)n2)cc(OC)c1OC | 57 | < 40 | Non-Toxic
CCCc1nn(C)c2c(N3CCOCC3)nc(/C=C/c3ccc[n+]([O-])c3)nc12 | 20.8 | 817 | Non-Toxic

SMILES | inhibition at 10 µM (RAW264.7 [1]) [%] | IC50 (L02) [µM] | Activity (RAW264.7 [2])
COc1cc(/C=C/c2nc(Nc3ccc(C(C)C)cc3)c3sccc3n2)cc(OC)c1OC | 13.3 | 370 | Non-Toxic
COc1cc(/C=C/c2nccc(NC(C)C)n2)cc(OC)c1OC | 61 | < 40 | Non-Toxic
C(=C\c1nc(N2CCOCC2)c2sccc2n1)/c1ccccc1 | 34.1 | > 1000 | Non-Toxic
CCCc1nn(C)c2c(N3CCS(=O)(=O)CC3)nc(/C=C/c3ccc[n+]([O-])c3)nc12 | 3.13 | > 1000 | Non-Toxic
C(=C\c1ccco1)/c1nc(NC2CC2)c2sccc2n1 | 33.3 | > 1000 | Non-Toxic
CNc1nc(/C=C/c2ccco2)nc2ccsc12 | 29.1 | 811 | Non-Toxic
CCCc1nn(C)c2c(N3CCOCC3)nc(CCc3cccnc3)nc12 | 27.1 | 859 | Non-Toxic
Fc1ccc(CNc2nc(/C=C/c3ccccc3)nc3ccsc23)cc1 | 23.4 | > 1000 | Non-Toxic
CNc1nc(/C=C/c2cc(OC)c(OC)c(OC)c2)nc2ccsc12 | 39.5 | > 1000 | Non-Toxic
CCCc1nn(C)c2c(NC(C)C)nc(/C=C/c3ccc[n+]([O-])c3)nc12 | 45.8 | 324 | Non-Toxic
CCCc1nn(C)c2c(NCc3ccc(F)cc3)nc(/C=C/c3cccnc3)nc12 | 61.3 | 940 | Non-Toxic
CCCc1nn(C)c2c(NCCc3ccccc3)nc(/C=C/c3nc(C)c(C)nc3C)nc12 | 52.7 | < 40 | Non-Toxic
CCCc1nn(C)c2c(NCCc3ccccc3)nc(/C=C/c3ccc[n+]([O-])c3)nc12 | 72.9 | 392 | Non-Toxic
COc1cc(/C=C/c2nc(NC(C)C)c3sccc3n2)cc(OC)c1OC | 59.1 | > 1000 | Non-Toxic
COc1cc(/C=C/c2nc(OCc3ccccc3)c3sccc3n2)cc(OC)c1OC | 33.8 | > 1000 | Non-Toxic
CCCc1nn(C)c2c(NC(C)C)nc(/C=C/c3cccnc3)nc12 | 74.2 | 574 | Non-Toxic
CCCc1nn(C)c2c(NC(C)C)nc(CCc3cccnc3)nc12 | 30.2 | 514 | Non-Toxic
CCCc1nn(C)c2c(NC3CC3)nc(/C=C/c3nc(C)c(C)nc3C)nc12 | 48.4 | 706 | Non-Toxic
COc1cc(/C=C/c2nc(Cl)cc(NCCc3ccc(F)cc3)n2)cc(OC)c1OC | 55.9 | < 40 | Non-Toxic
CN(c1ccccc1)c1nc(/C=C/c2ccccc2)nc2ccsc12 | 24.9 | > 1000 | Non-Toxic
CC(C)c1ccc(Nc2nc(/C=C/c3ccco3)nc3ccsc23)cc1 | 31.7 | > 1000 | Non-Toxic
